The source of these data is US9468669B2, “Methods to treat dysregulated blood glucose disorders” (REGENTS OF THE UNIVERSITY OF MINNESOTA, priority 2013, dated 2016).

The test system of data set [1] is human islets. Kind of data set: Human islet viability (acridine orange / propidium iodide staining). As to conditions: for islet viability: 100 uM. The data set is classed as cell-based. Here is the method:
(§1) Living islets were isolated from the pancreas of a consenting organ donor via enzymatic digestion and isopycnic density gradient purification as previously described (Balamurugan, A N., et al., (2014) The Islets of Langerhans, 2nd Edition, 1-25). This isolation was performed as a standard procedure by an experienced team at the Schulze Diabetes Institute of the University of Minnesota under GMP conditions. A portion of the total number of isolated islets were granted for these experiments after quality control testing and quantification. Islets were maintained in culture in supplemented Prodo media with a 5.5 mM glucose concentration in a T-flask at 37° C., 5% CO2. Half-volume media changes were performed every 3′^d day.
After conditional incubations (described below), islets were placed in standard media for 2-8 hrs before viability assessment. The viability of islets was assessed by double staining an aliquot of ˜25 islets with acridine orange (stains living cells) and propidium iodide (stains necrotic or apoptotic cells) (Bank, H. L., (1988) In Vitro Cell Dev Biol 24, 266-73). Each islet in the sample was evaluated under a fluorescent microscope and assigned a value for the % of live cells present and those numbers averaged for that sample. 3× samples per condition were assayed each day for 3 consecutive days and on one day in a follow-up experiment 1 week later. Prior to staining, aliquots were incubated for 60 minutes (FIG. 12, n=2 days) or 90 minutes (FIG. 13, n=2 days) in each solution type used in the GSIR incubations in addition to 100 uM concentrations of D-serine, NMDA or D-serine+NMDA alone (i.e. in 0 glucose). […] On the 3rd day and in a subsequent follow-up experiment, islets were incubated for 90 minutes in the same solutions. In this case, viability was decreased only under those conditions with both the maximum glucose concentration (28 mM) and the addition of NMDA and/or D-serine with the most dramatic loss of viable islet cells (down to 81.1±1.1%) observed in the 28 mM glucose+100 uM NMDA+100 uM D-serine condition (FIG. 13).

The test system of data set [2] is human islets. The data set is described as follows: Glucose stimulated insulin release (GSIR). The format is cell-based. To be noted: 100 uM, glucose series. As to the method: as §1, with “Half-volume media changes were performed every 3′^d day.” left out
After washing to remove culture media, approximate aliquots of 30 islet equivalents (IEQ, islet numbers normalized to an average size of 150 microns) were added to cell strainers immersed in 1.0 mL of 0-glucose solution. […] All well contents, both time 0 and post-stimulation samples, were stored at −80° C. until they could be assessed for insulin content via sandwich ELISA from a standard commercial mouse insulin ELISA kit. Insulin content, post-stimulation concentration minus the time 0 concentration, was normalized to the actual IEQ of each well, which was determined by Pico-green DNA assessment (Papas, K. K., et al., (2007), Am J Transplant 7, 707-13) of cell strainer contents recovered at the end of the final incubation. […]

The nature of data set [3]: Core body temperature by rectal probe during chronic D-serine drinking. The data set is classed as in vivo, mice. As to conditions: throughout the chronic D-serine drinking experiment. As to the method:
(§2) Eight adult male mice of the C57 strain were tested in a chronic administration model. Mice were housed 2 per cage, with each cage outfitted with 2 special drinking tubes (50 mL conical+stopper with sipper tube) to minimize the impact of any problems with a single tube. Two cages of mice drank tap water and two cages of mice drank a D-serine solution (12.6 mg/ml in tap water), with solutions replaced every other day. Every other day, the food and drinking bottles were weighed to determine cage-wide consumptive behaviors and the mice were individually weighed. At specified intervals, mice were also tested for core body temperature by rectal probe and for 4-hours fasted blood glucose. All mice started with a week of water drinking. […] After one week, two cages (4 mice) were switched to D-serine solution. […] After this measure, all mice were again switched back to water. […] Both acute weight loss and increased drinking are prominent symptoms of the onset of diabetes.
The hypothalamus is known to regulate metabolism through its influence on circadian rhythm, hunger, thirst, body temperature and glucose utilization among others. […] Core body temperature, determined by rectal thermometer, was stable throughout the chronic D-serine drinking experiment (FIG. 8A) and between wildtype and DAO mutant mice (FIG. 8B).

Data set [4] deals with blood glucose. Kind of data set: Acute D-serine injection, fasted blood glucose by glucometer. The data set is classed as in vivo, mice of the ddY strain. As to conditions: 2.7 g/kg i.p., 6 h fasted. As to the method:
Mice were fasted for 4-6 hours. The tails were wiped with ethanol and allowed to dry. For a first time test, the tip of the tail was removed with a scissors. For subsequent tests, a needle was used to puncture the tail vein. The first drop of blood was wiped away and then the second drop was placed on a glucometer test strip. A second test was administered immediately and most scores were an average of the two readings. If there was more than a 100 unit discrepancy between the two readings, a third reading was taken and the reported value was an average of the three.
Four adult male mice of the ddY strain were fasted for 6 hours before testing. A blood glucose reading from each mouse was determined at the start (time 0). The mice were weighed and the average weight was used with an injection volume of 0.3 mL to calculate the concentration of D-serine to dissolve into saline. The dose, 2.7 g/kg, was picked based on previously published behavior studies in which the intraperitoneal dose was the most reliable in inducing a mouse behavior response during pre-pulse startle inhibition (Kanahara, N., et al., (2008), Psychopharmacology, 198, 363-374) and acute ethanol sedation (Lockridge, A., et al., (2012), Alcohol, 46:389-400). After time 0 testing, each mouse received either D-serine or saline (alternating by cage) at 5 minute intervals. Blood glucose readings were taken at 15, 30, 60 and 120 minutes after each mouse's initial injection. The data presented is the average blood glucose (mg/dL), determined by glucometer as previously described (FIG. 1). Each data point is the average of the two mice with the same treatment condition, while the standard error bars indicate the degree of individual variability between subjects. The saline injected control mice (black) maintained a steady glucose level (70-80% of baseline) throughout the testing period.

Data set [5] concerns human islets. The data set is described as follows: Sustained high concentration D-serine on human islet survival (1 week culture). To be noted: 100 uM NMDA and 500 uM D-serine. The data set is classed as cell-based. As to the method: as §1
After conditional incubations (described below), islets were placed in standard media for 2-8 hrs before viability assessment. The viability of islets was assessed by double staining an aliquot of ˜25 islets with acridine orange (stains living cells) and propidium iodide (stains necrotic or apoptotic cells) (Bank, H. L., (1988) In Vitro Cell Dev Biol 24, 266-73). Each islet in the sample was evaluated under a fluorescent microscope and assigned a value for the % of live cells present and those numbers averaged for that sample. 3× samples per condition were assayed each day for 3 consecutive days and on one day in a follow-up experiment 1 week later. […]

In data set [6] the test system is blood glucose. The data set is described as follows: Chronic D-serine drinking, fasted blood glucose, body weight and consumption. The format is in vivo, mice of the C57 strain. Here is the method: as §2, with “Mice were fasted for 4-6 hours. The tails were wiped with ethanol and allowed to dry. For a first time test, the tip of the tail was removed with a scissors. For subsequent tests, a needle was used to puncture the tail vein. The first drop of blood was wiped away and then the second drop was placed on a glucometer test strip. A second test was administered immediately and most scores were an average of the two readings. If there was more than a 100 unit discrepancy between the two readings, a third reading was taken and the reported value was an average of the three. Eight” for “Eight”

Data set [7] can be described thus: Plasma D-serine during chronic, sustained drinking (capillary electrophoresis). The data set is classed as in vivo, mice. As to conditions: 12.6 mg/mL drinking solution. The text has this: The data from FIG. 4 were generated from an unpublished study of the impacts of D-serine on ethanol drinking. […] Blood was collected from the facial vein and assayed via capillary electrophoresis as described above after mice (n=2-4 per condition as shown in the x-axis) had been presented with a choice of water vs. D-serine (or ethanol) drinking solution for 2 weeks and then 2 weeks of exclusively drinking treated solution according to their indicated treatment category.

Data set [8] in a line: Plasma D-serine after acute i.p. administration (capillary electrophoresis). The data set is classed as in vivo, mice. To be noted: 2.7 g/kg i.p., 35 and 55 minutes after injection; ethanol 3 g/kg i.p. 15 min after D-serine. As to the method: The data from FIG. 3 serves as an example of a concentration reference value subject to the time frame and administration technique of the acute hypoglycemia experiments described in FIG. 1. A 20 uL blood sample was collected from the facial vein of mice prior to any treatment (time 0) and 20 and 40 minute intervals after an i.p. injection of ethanol (3 g/kg). A pre-treatment injection of saline (n=9) or D-serine (2.7 g/kg, i.p., n=9) was administered 15 minutes before ethanol such that the reported values also correspond to time 35 and 55 minutes after the pre-injection. These blood samples were assayed for D-serine using capillary electrophoresis, as described in the publication (Lockridge, 2012). Basal levels of plasma D-serine were ˜20 uM with post-injection values rising into the […].

[9] abbreviates: 12.6 mg/ml in drinking water, first week of treatment.

In the case of `CN[C@H](CC(=O)O)C(=O)O` [NMDA, N-methyl-D-aspartate], the islet viability in data set [1] (60 minutes incubation, all GSIR solution types and 0 glucose) was ~100%. Moreover, the “islet viability (viable islet cells)” value in data set [1] (90 minutes incubation, 28 mM glucose, 100 uM supplement) is given as “decreased”. Moreover, the “effect on insulin secretion, supplement alone” value in data set [2] is reported as “no effect on 2 out of 3 days tested”.

For the molecule `N[C@H](CO)C(=O)O` [D-serine], the islet viability in data set [1] (human, 60 min) is ~100%. Moreover, the core body temperature entry in data set [3] is “stable”. In addition, the blood sugar entry was “stable” in data set [4] (15 and 30 minutes after injection); 170 ± 9 mg/dL in data set [6] (12.6 mg/ml in drinking water, 16 days of drinking, 4-hours fasted); 149 ± 12 mg/dL in data set [6] (12.6 mg/ml in drinking water, after 7 days of drinking, 4-hours fasted). In addition, the entries for the “blood sugar, % of baseline” value in data set [4] (60 minutes after injection) and in data set [4] (120 minutes after injection) were 52 % of baseline and 36 % of baseline, respectively. In addition, the “average viability, % viable cells per islet” value in data set [5] was 84±2.4%. In addition, in data set [5] (Pico-green DNA assay), the “islets recovered, average pool IEQ” value is 1137±172 IEQ. Also, the solution drinking entry in data set [6] (12.6 mg/ml in drinking water) is on record as “increased”. Also, in data set [6] (setting [9]), the body weight result is recorded as “weight loss”. The eating entry in data set [6] (setting [9]) is on record as “reduced eating”. The blood glucose entry in data set [6] (12.6 mg/ml in drinking water, two days after the switch, 4-hours fasted) is listed as “still at baseline levels”. Besides, in data set [6] (after a week of water drinking following 16 days of D-serine), the “blood glucose after switch back to water” value is “recovered back to baseline glucose levels”. In addition, the “plasma level relative to human patients undergoing D-serine oral therapy” value in data set [7] (versus clinical trials (Emilov 2013)) is 2-3 times higher. The concentration at 4 weeks in data set [7] (mouse, plasma, oral, 2 weeks choice then 2 weeks exclusive drinking, read-out: basal D-serine plasma level) fell in the range of 400 to 600 µM. Besides, in data set [2], the “effect on insulin secretion, supplement alone” value is recorded as “no effect”. In data set [8], the “plasma D-serine, post-injection” value was ~12 mM.
